How the values were obtained:
[1] = test system: aromatase; assay: Selectivity index, ratio of IC50 for GFP-expressing African green monkey Vero cells to IC50 for aromatase (unknown origin); type: toxicity; details: read-out: Ratio IC50
[2] = target: T1, Aromatase (Homo sapiens, UniProt P11511); assay: Inhibition of aromatase (unknown origin) using O-benzyl fluorescein benzyl ester as substrate in presence of NADPH-generating system by fluorescence assay
T1 sequence (P11511 whole entry): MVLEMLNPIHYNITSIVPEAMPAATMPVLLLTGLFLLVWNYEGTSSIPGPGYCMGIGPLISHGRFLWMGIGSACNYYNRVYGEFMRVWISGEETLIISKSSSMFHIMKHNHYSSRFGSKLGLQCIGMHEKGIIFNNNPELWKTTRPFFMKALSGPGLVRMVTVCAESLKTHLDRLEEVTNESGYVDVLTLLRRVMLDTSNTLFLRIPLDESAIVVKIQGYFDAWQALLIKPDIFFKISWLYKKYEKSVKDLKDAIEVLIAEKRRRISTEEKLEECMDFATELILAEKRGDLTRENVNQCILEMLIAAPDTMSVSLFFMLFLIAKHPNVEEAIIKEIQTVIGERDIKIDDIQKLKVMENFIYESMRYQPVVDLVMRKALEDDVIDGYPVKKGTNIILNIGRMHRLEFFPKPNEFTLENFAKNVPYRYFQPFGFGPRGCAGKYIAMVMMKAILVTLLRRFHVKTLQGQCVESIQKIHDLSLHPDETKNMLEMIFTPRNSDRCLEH

[3] = test system: Vero; assay: Cytotoxicity against GFP-expressing African green monkey Vero cells after 4 days by fluorescence assay; type: cell-based; details: Chlorocebus sabaeus, 96 h

| Structure (SMILES) | selectivity ratio [1] | IC50 [2] [µM] | IC50 [3] |
| --- | --- | --- | --- |
| O=[N+]([O-])c1cccc(S(=O)(=O)NCCc2c(C(c3ccccc3O)c3[nH]c4ccccc4c3CCNS(=O)(=O)c3cccc([N+](=O)[O-])c3)[nH]c3ccccc23)c1 | > 37 | 1.7 | > 50 µg/mL |
| COc1ccc(S(=O)(=O)NCCc2c(C(c3ccccc3)c3[nH]c4ccccc4c3CCNS(=O)(=O)c3ccc(OC)cc3)[nH]c3ccccc23)cc1 | > 19.1 | 3.5 | > 50 µg/mL |
| O=[N+]([O-])c1ccc(S(=O)(=O)NCCc2c(C(c3ccccc3O)c3[nH]c4ccccc4c3CCNS(=O)(=O)c3ccc([N+](=O)[O-])cc3)[nH]c3ccccc23)cc1 | > 22.5 | 2.8 | > 50 µg/mL |
| COc1ccc(S(=O)(=O)NCCc2c(C(c3ccc(O)cc3)c3[nH]c4ccccc4c3CCNS(=O)(=O)c3ccc(OC)cc3)[nH]c3ccccc23)cc1 | > 93.4 | 0.7 | > 50 µg/mL |
| O=S(=O)(NCCc1c(C(c2ccc(Br)cc2)c2[nH]c3ccccc3c2CCNS(=O)(=O)c2ccc(Cl)cc2)[nH]c2ccccc12)c1ccc(Cl)cc1 | 16.6 | 2.7 | 44.9 µM |
| O=C1Nc2ccccc2C1(c1[nH]c2ccccc2c1CCNS(=O)(=O)c1ccc(Cl)cc1)c1[nH]c2ccccc2c1CCNS(=O)(=O)c1ccc(Cl)cc1 | > 7.54 | 8.3 | > 50 µg/mL |
| N#Cc1ccc(C(c2[nH]c3ccccc3c2CCNS(=O)(=O)c2ccc(F)cc2)c2[nH]c3ccccc3c2CCNS(=O)(=O)c2ccc(F)cc2)cc1 | > 6.8 | 9.8 | > 50 µg/mL |
| O=S(=O)(NCCc1c(C(c2ccc(F)cc2)c2[nH]c3ccccc3c2CCNS(=O)(=O)c2ccc(Br)cc2)[nH]c2ccccc12)c1ccc(Br)cc1 | > 7.61 | 7.6 | > 50 µg/mL |
| COc1ccc(S(=O)(=O)NCCc2c(C(c3ccccc3O)c3[nH]c4ccccc4c3CCNS(=O)(=O)c3ccc(OC)cc3)[nH]c3ccccc23)cc1 | > 81.7 | 0.8 | > 50 µg/mL |
| Cc1c2ccncc2c(C)c2c1[nH]c1ccccc12 [ELLIPTECINE] | – | – | 1.94 µM |
| N#Cc1ccc(C(c2[nH]c3ccccc3c2CCNS(=O)(=O)c2ccc(Cl)cc2)c2[nH]c3ccccc3c2CCNS(=O)(=O)c2ccc(Cl)cc2)cc1 | > 11.6 | 5.5 | > 50 µg/mL |
| COc1ccc(S(=O)(=O)NCCc2c(C3(c4[nH]c5ccccc5c4CCNS(=O)(=O)c4ccc(OC)cc4)C(=O)Nc4ccccc43)[nH]c3ccccc23)cc1 | > 22.6 | 2.8 | > 50 µg/mL |
| O=[N+]([O-])c1ccc(S(=O)(=O)NCCc2c(C(c3ccccc3)c3[nH]c4ccccc4c3CCNS(=O)(=O)c3ccc([N+](=O)[O-])cc3)[nH]c3ccccc23)cc1 | > 5.73 | 11.2 | > 50 µg/mL |
| O=S(=O)(NCCc1c(C(c2ccc(F)cc2)c2[nH]c3ccccc3c2CCNS(=O)(=O)c2ccc(C(F)(F)F)cc2)[nH]c2ccccc12)c1ccc(C(F)(F)F)cc1 | 3.42 | 4.4 | 15.1 µM |
| O=C1Nc2ccccc2C1(c1[nH]c2ccccc2c1CCNS(=O)(=O)c1ccccc1[N+](=O)[O-])c1[nH]c2ccccc2c1CCNS(=O)(=O)c1ccccc1[N+](=O)[O-] | > 6.22 | 9.8 | > 50 µg/mL |
| O=S(=O)(NCCc1c(C(c2ccc(Br)cc2)c2[nH]c3ccccc3c2CCNS(=O)(=O)c2ccc(C(F)(F)F)cc2)[nH]c2ccccc12)c1ccc(C(F)(F)F)cc1 | 7.3 | 3.4 | 24.8 µM |
| O=S(=O)(NCCc1c(C(c2ccc(O)cc2)c2[nH]c3ccccc3c2CCNS(=O)(=O)c2ccc(Cl)cc2)[nH]c2ccccc12)c1ccc(Cl)cc1 | 10.7 | 1.4 | 15 µM |
| COc1ccc(S(=O)(=O)NCCc2c(C(c3cc(OC)c(O)c(OC)c3)c3[nH]c4ccccc4c3CCNS(=O)(=O)c3ccc(OC)cc3)[nH]c3ccccc23)cc1 | > 24.2 | 2.5 | > 50 µg/mL |

| Structure (SMILES) | selectivity ratio [1] | IC50 [2] [µM] | IC50 [3] |
| --- | --- | --- | --- |
| O=[N+]([O-])c1cccc(S(=O)(=O)NCCc2c(C(c3ccc(O)cc3)c3[nH]c4ccccc4c3CCNS(=O)(=O)c3cccc([N+](=O)[O-])c3)[nH]c3ccccc23)c1 | > 27.4 | 2.3 | > 50 µg/mL |
| O=S(=O)(NCCc1c(C(c2ccc(O)cc2)c2[nH]c3ccccc3c2CCNS(=O)(=O)c2ccc(C(F)(F)F)cc2)[nH]c2ccccc12)c1ccc(C(F)(F)F)cc1 | 10.2 | 1.3 | 13.3 µM |
| Cc1ccc(S(=O)(=O)NCCc2c(C(c3ccccc3O)c3[nH]c4ccccc4c3CCNS(=O)(=O)c3ccc(C)cc3)[nH]c3ccccc23)cc1 | 3.6 | 4.1 | 14.8 µM |
| O=C1Nc2ccccc2C1(c1[nH]c2ccccc2c1CCNS(=O)(=O)c1cccc([N+](=O)[O-])c1)c1[nH]c2ccccc2c1CCNS(=O)(=O)c1cccc([N+](=O)[O-])c1 | > 5.13 | 11.9 | > 50 µg/mL |
| O=[N+]([O-])c1ccc(C(c2[nH]c3ccccc3c2CCNS(=O)(=O)c2ccc(C(F)(F)F)cc2)c2[nH]c3ccccc3c2CCNS(=O)(=O)c2ccc(C(F)(F)F)cc2)cc1 | > 14.4 | 4 | > 50 µg/mL |
| O=S(=O)(NCCc1c(C(c2ccc(F)cc2)c2[nH]c3ccccc3c2CCNS(=O)(=O)c2ccc(Cl)cc2)[nH]c2ccccc12)c1ccc(Cl)cc1 | > 11.9 | 5.4 | > 50 µg/mL |
| O=S(=O)(NCCc1c(C(c2ccc3c(c2)Cc2ccccc2-3)c2[nH]c3ccccc3c2CCNS(=O)(=O)c2ccc(Cl)cc2)[nH]c2ccccc12)c1ccc(Cl)cc1 | > 6.72 | 8.8 | > 50 µg/mL |
| N#Cc1ccc(C(c2[nH]c3ccccc3c2CCNS(=O)(=O)c2ccc(C(F)(F)F)cc2)c2[nH]c3ccccc3c2CCNS(=O)(=O)c2ccc(C(F)(F)F)cc2)cc1 | > 3.85 | 15.3 | > 50 µg/mL |
| O=[N+]([O-])c1ccc(C(c2[nH]c3ccccc3c2CCNS(=O)(=O)c2ccc(F)cc2)c2[nH]c3ccccc3c2CCNS(=O)(=O)c2ccc(F)cc2)cc1 | > 18.6 | 3.5 | > 50 µg/mL |
| Cc1ccc(S(=O)(=O)NCCc2c(C(c3ccccc3)c3[nH]c4ccccc4c3CCNS(=O)(=O)c3ccc(C)cc3)[nH]c3ccccc23)cc1 | > 5.86 | 11.9 | > 50 µg/mL |
| O=S(=O)(NCCc1c(C(c2ccc(C(F)(F)F)cc2)c2[nH]c3ccccc3c2CCNS(=O)(=O)c2ccc(Br)cc2)[nH]c2ccccc12)c1ccc(Br)cc1 | > 14.4 | 3.8 | > 50 µg/mL |
| CCn1c2ccccc2c2ccc(C(c3[nH]c4ccccc4c3CCNS(=O)(=O)c3ccc(Cl)cc3)c3[nH]c4ccccc4c3CCNS(=O)(=O)c3ccc(Cl)cc3)cc21 | > 14.7 | 3.9 | > 50 µg/mL |
| O=S(=O)(NCCc1c(C(c2ccc(C(F)(F)F)cc2)c2[nH]c3ccccc3c2CCNS(=O)(=O)c2ccc(Cl)cc2)[nH]c2ccccc12)c1ccc(Cl)cc1 | 5.06 | 3.2 | 16.2 µM |
| O=S(=O)(NCCc1c(C(c2ccc(C(F)(F)F)cc2)c2[nH]c3ccccc3c2CCNS(=O)(=O)c2ccc(C(F)(F)F)cc2)[nH]c2ccccc12)c1ccc(C(F)(F)F)cc1 | > 24.4 | 2.3 | > 50 µg/mL |
| O=[N+]([O-])c1ccccc1S(=O)(=O)NCCc1c(C(c2ccccc2O)c2[nH]c3ccccc3c2CCNS(=O)(=O)c2ccccc2[N+](=O)[O-])[nH]c2ccccc12 | > 13.7 | 4.6 | > 50 µg/mL |
| O=[N+]([O-])c1ccc(C(c2[nH]c3ccccc3c2CCNS(=O)(=O)c2ccc(Br)cc2)c2[nH]c3ccccc3c2CCNS(=O)(=O)c2ccc(Br)cc2)cc1 | > 20.8 | 2.7 | > 50 µg/mL |
| O=S(=O)(NCCc1c(C(c2ccccc2O)c2[nH]c3ccccc3c2CCNS(=O)(=O)c2ccc(Cl)cc2)[nH]c2ccccc12)c1ccc(Cl)cc1 | > 15.4 | 4.2 | > 50 µg/mL |
